Data as given in US9408388B2 (Dow Global Technologies LLC, priority 2013, dated 2016).

What was measured:
Chlorella sp. ATCC 7516 = assay: Algal efficacy testing of dry paint film (modified ASTM 5589, 6-well plates); assay type: cell-based; conditions: 4 weeks
Method: (§1) Slurries containing 34.3% carbendazim were post added to a white, acrylic/silicone based outdoor paint free of biocides to give a total active ingredient concentration of 10000 and 1000 ppm respectively. These paints were then diluted with an antimicrobial free acrylic/silicone based paint and mixed to prepare targeted concentrations of antimicrobial compounds for the testing. The total biocides concentrations tested were 125, 250, 500, 1000, 2000 and 5000 ppm. After biocides addition or dilution, the paints were mixed 90 seconds with the horse power shaker (AXEL 75M3372/Agitateur SO-10MI) until uniformity was achieved. Paints containing different antimicrobial compounds at the same levels were mixed together in order to obtain the desired ratio of antimicrobial compounds. After one day, the paints were applied to Schleicher & Schuell filter paper at 280 μm wet film thickness and dried for 3 days at room temperature avoiding direct exposure to sunlight. Square discs (1.6 cm×1.6 cm) were cut out from each panel and were used as the substrate for algal efficacy tests. This sample size allowed for an agar border when the sample disc was placed into the well of the test plate.
(§2) Algal efficacy was tested according to modified ASTM 5589 which is a standard accelerated test method for determining resistance of various coatings (including paints) to algal defacement. To accommodate for high-throughput screening, this method was scaled down from petri dishes to 6-well plates. Bold Modified Basal Freshwater Nutrient Solution was used as growth medium. A single coated filter paper coupon was placed with a pair of sterile forceps at the center of the agar plug (on top) with the painted surface facing upwards. Algal inoculums were prepared by mixing equal concentrations (1×10^6 cfu/ml) and equal volumes of exponentially growing algae cultures.
(§3) Each well that contains a tested coupon was inoculated with 1750 μl of algal suspensions (1×10^6 cfu/ml) making sure that the whole surface (paint film as well as the agar surrounding it) was evenly covered. The plates were incubated at room temp (21° C. -25° C.) with cyclic exposure to light and dark phases, for a period of four weeks.
(§4) At the end of the four week incubation period, the samples were scored for percent inhibition regarding visible algal growth compared to the blank sample (0% inhibition).
(§5) The SI is calculated based on F. C. Kull et.
(§6) The minimal targeted inhibition was set at 75%, meaning a coupon with at least 75% algal growth inhibition was considered as a pass.

[1] = system: Stichococcus bacillaris SAG 379-1a CCAP 379/1a; assay: as above; assay type: cell-based; conditions: 4 weeks
Method: as §1, §2, §3, §4, §5, §6

[2] = pass level 75% inhibition, total biocide in liquid paint

Row | Structure (SMILES) | inhibition at 5000 ppm (Chlorella sp. ATCC 7516; 672 h, total conc 5000 ppm, visible algal growth vs blank) [%] | inhibition at 5000 ppm ([1]; Stichococcus bacillaris, 672 h, total conc 5000 ppm, visible algal growth vs blank) [%] | Total conc (concentration used for SI; lowest passing level or highest level without pass) (Chlorella sp. ATCC 7516; [2]) [ppm] | inhibition at 2000 ppm (Chlorella sp. ATCC 7516; 672 h, total conc 2000 ppm, visible algal growth vs blank) [%] | Total conc (concentration used for SI; lowest passing level or highest level without pass) [1, 2] [ppm] | inhibition at 2000 ppm ([1]; Stichococcus bacillaris, 672 h, total conc 2000 ppm, visible algal growth vs blank) [%]
1 | O=c1[nH]c2c(c(=O)n1C1CCCCC1)CCC2 [Lenacil, 3-cyclohexyl-1,5,6,7-tetrahydrocyclopentapyrimidine-2,4(3H)-dione] | 45 | 65 |  |  |  | 
2 | COC(=O)Nc1nc2ccccc2[nH]1 [Carbendazim, methylbenzimidazol-2-ylcarbamate] |  |  | 2000 | 45 | 2000 | 45
